Legend:
Experiment in all cases: relative viability (nuclei count vs DMSO), 5 days (fraction); higher = more cells survive
[1] = compound: CN(C)CC1=CC(=CC=C1)N=C(C2=CC=CC=C2)C3=C(NC4=C3C=CC(=C4)C(=O)N(C)C)O + CC1(C)CCC(c2ccc(Cl)cc2)=C(CN2CCN(c3ccc(C(=O)NS(=O)(=O)c4ccc(N[C@H](CCN5CCOCC5)CSc5ccccc5)c(S(=O)(=O)C(F)(F)F)c4)cc3)CC2)C1 [Navitoclax] (partner 0.5 µM)
In short: (§1)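 Relative viability divides the nuclei count in treated wells by that in vehicle wells. Lung cancer cell lines were seeded in 1536-well plates, dosed by pin tool the next day, and fixed and stained after 5 days in one step with final 0.05% Triton X-100, 1% formaldehyde and 1 ug/ml Hoechst. Dosing was a single drug or a fixed anchor-drug dose plus five library-drug doses (not always all listed) in √10 steps, and values are medians of duplicate plates imaged at 4×.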

[2] = compound: CN(C)CC1=CC(=CC=C1)N=C(C2=CC=CC=C2)C3=C(NC4=C3C=CC(=C4)C(=O)N(C)C)O
In short: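 On vehicle-anchored 1536-well plates, lung cancer cell lines held overnight at 37 °C were pinned with five library-drug doses (not always all listed) spaced by √10. With no medium change over 5 days, they were then fixed, permeabilised and Hoechst-stained in one step and imaged at 4×. MetaXpress counted nuclei, and viability is the median across plates of treated-well over vehicle-well nuclei. Acceptance needed control CV below 25% and at least one doubling.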

[3] = compound: CN(C)CC1=CC(=CC=C1)N=C(C2=CC=CC=C2)C3=C(NC4=C3C=CC(=C4)C(=O)N(C)C)O + Cc1cc(Nc2cc(N3CCN(C)CC3)nc(Sc3ccc(NC(=O)C4CC4)cc3)n2)n[nH]1 [Tozasertib] (partner 0.1 µM)
In short: as §1

[4] = compound: CN(C)CC1=CC(=CC=C1)N=C(C2=CC=CC=C2)C3=C(NC4=C3C=CC(=C4)C(=O)N(C)C)O + N=C(N)NC(=N)NCCc1ccccc1 [Phenformin] (partner 250 µM)
In short: as §1

Cell Line | relative viability ([1]; first compound 0.08 µM) | relative viability ([1]; first compound 0.253 µM) | relative viability ([1]; first compound 0.8 µM) | relative viability ([1]; first compound 2.53 µM) | relative viability ([1]; first compound 8 µM) | relative viability ([2]; 0.08 µM) | relative viability ([2]; 0.253 µM) | relative viability ([2]; 0.8 µM) | relative viability ([2]; 2.53 µM) | relative viability ([2]; 8 µM) | relative viability ([3]; first compound 0.08 µM) | relative viability ([3]; first compound 0.253 µM) | relative viability ([3]; first compound 0.8 µM) | relative viability ([3]; first compound 2.53 µM) | relative viability ([3]; first compound 8 µM) | relative viability ([4]; first compound 0.08 µM) | relative viability ([4]; first compound 0.253 µM) | relative viability ([4]; first compound 0.8 µM) | relative viability ([4]; first compound 2.53 µM) | relative viability ([4]; first compound 8 µM)
Calu-6 | 0.815 | 0.831 | 0.963 | 0.888 | 0.928 | 1.1 | 1.05 | 1.01 | 0.986 | 0.977 |  |  |  |  |  |  |  |  |  | 
ChaGo-K-1 | 1.16 | 1.17 | 1.27 |  | 1 | 0.948 | 0.993 | 1.02 | 0.947 | 1.01 | 0.235 | 0.25 | 0.217 | 0.22 | 0.213 | 0.495 | 0.507 | 0.479 | 0.436 | 0.433
EBC-1 | 0.459 | 0.411 | 0.539 | 0.522 | 0.518 | 1.02 | 0.958 | 1.08 | 0.985 | 1.1 |  |  |  |  |  |  |  |  |  | 
EKVX | 0.908 | 0.82 | 0.956 | 0.885 | 1 | 0.981 | 0.919 | 0.819 | 1.05 | 0.996 | 0.445 | 0.387 | 0.459 | 0.378 | 0.323 | 0.239 | 0.251 | 0.221 | 0.247 | 0.241
EMC-BAC-2 | 1.13 | 1.15 | 1.17 | 1.18 | 1.1 | 1.02 | 1.06 | 1.03 | 0.939 | 1.08 | 0.297 | 0.283 | 0.383 | 0.258 | 0.267 | 0.496 | 0.506 | 0.504 | 0.478 | 0.55
EPLC-272H | 1.35 | 1.08 | 0.913 | 1.14 | 1.11 | 0.837 | 1 | 0.838 | 1.15 | 0.792 | 0.351 | 0.392 | 0.303 | 0.278 | 0.272 | 0.323 | 0.283 | 0.226 | 0.302 | 0.347
H3255 | 0.608 | 0.457 | 0.514 | 0.545 | 0.552 | 0.942 | 1.02 | 0.889 | 1.02 | 1.04 | 0.528 | 0.575 | 0.65 | 0.71 | 0.484 | 0.44 | 0.356 | 0.338 | 0.392 | 0.371
HARA | 1.14 | 1.14 | 1.18 | 1.15 | 1.13 | 0.953 | 0.946 | 0.742 | 0.986 | 1.08 | 0.11 | 0.125 | 0.0998 | 0.108 | 0.0768 | 0.413 | 0.454 | 0.384 | 0.412 | 0.373
HCC-15 | 0.708 | 0.705 | 0.726 | 0.731 | 0.667 | 0.996 | 0.995 | 1.03 | 1.05 | 1.09 | 0.424 | 0.387 | 0.39 | 0.365 | 0.453 | 0.48 | 0.462 | 0.503 | 0.419 | 0.431

Reference: the supplement of paper PMC10307832
